Source: patent US20130096302A1, “PYRROLOPYRAZINES AND PYRAZOLOPYRAZINES USEFUL AS INHIBITORS OF PROTEIN KINASES” (priority 2005, published 2013)

Biological target: T1, full length Aurora-A (AA 1-403) (Homo sapiens, UniProt O14965)
T1 sequence (O14965 1-403): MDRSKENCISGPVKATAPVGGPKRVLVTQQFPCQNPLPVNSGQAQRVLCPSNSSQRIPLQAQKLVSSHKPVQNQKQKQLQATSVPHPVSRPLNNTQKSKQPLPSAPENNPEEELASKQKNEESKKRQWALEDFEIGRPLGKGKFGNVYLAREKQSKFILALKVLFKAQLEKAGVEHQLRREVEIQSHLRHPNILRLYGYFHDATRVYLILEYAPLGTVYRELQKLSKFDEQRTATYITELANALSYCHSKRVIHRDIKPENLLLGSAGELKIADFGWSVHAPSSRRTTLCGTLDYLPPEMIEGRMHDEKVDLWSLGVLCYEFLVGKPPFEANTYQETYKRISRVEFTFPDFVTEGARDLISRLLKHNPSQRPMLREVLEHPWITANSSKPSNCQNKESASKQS
Assay: AuroraA Inhibition Assay (coupled enzyme system)
Format: biochemical
Settings: standard coupled enzyme system, 200 μM ATP, 800 μM peptide (LRRASLG), 35 nM Aurora-A, 30° C.
Procedure: Compounds were screened for their ability to inhibit full length Aurora-A (AA 1-403) activity using a standard coupled enzyme system (Fox et al., Protein Sci., 7, pp. 2249 (1998)). Reactions were carried out in a solution containing 100 mM HEPES (pH 7.5), 10 mM MgCl2, 25 mM NaCl, 300 μM NADH, 1 mM DTT and 3% DMSO. Final substrate concentrations in the assay were 200 μM ATP (Sigma Chemicals, St Louis, Mo.) and 800 μM peptide (LRRASLG, American Peptide, Sunnyvale, Calif.). Reactions were carried out at 30° C. and 35 nM Aurora-A. Final concentrations of the components of the coupled enzyme system were 2.5 mM phosphoenolpyruvate, 200 μM NADH, 60 μg/ml pyruvate kinase and 20 μg/ml lactate dehydrogenase.
An assay stock buffer solution was prepared containing all of the reagents listed above with the exception of ATP and the test compound of interest. The assay stock buffer solution (60 μl) was incubated in a 96 well plate with 2 μl of the test compound of interest at final concentrations spanning 0.002 μM to 30 μM at 30° C. for 10 min. […] Rates of reaction were obtained using a Molecular Devices Spectramax plate reader (Sunnyvale, Calif.) over 10 min at 30° C. The Ki values were determined from the rate data as a function of inhibitor concentration using computerized nonlinear regression (Prism 3.0, Graphpad Software, San Diego, Calif.).

Row | Ki [nM] | SMILES
1 | < 200 | Clc1cnc2[nH]cc(-c3cccc(Br)c3)c2n1 [Compound I-1, 7-(3-Bromo-phenyl)-2-chloro-5H-pyrrolo[2,3-b]pyrazine]
2 | < 200 | C[C@H](Nc1nc(-c2c[nH]c3ncc(Cl)nc23)ncc1F)c1ccc(F)cc1 [Compound I-28]
